# Tests used:
# phospho-SAMHD1 = assay: Western blotting of phospho-SAMHD1 in HepG2-NTCP-C4 cells; format: cell-based, human; settings: 30 μM, 1 day
# Procedure: HepG2-NTCP-C4 cells were treated with 30 μM iCDM-17 and iCDM-34 for 1 day. The cells were lyzed with 20 mM TrisHCl pH 7.5 containing 100 mM NaCl, 10 mM EDTA, 1% TritonX-100, 1% Sodium deoxycholate, PhosSTOP (Roche), Complete EDTA free. The lysates were sonicated 30 s and mixed for 1 h with rotation at 4 °C. The lysates were centrifuged at 15,000 rpm for 10 min at 4 °C. The supernatants were analyzed by Western blotting using anti-phospho-SAMHD1 (Thr592) (Cell signaling technology, 89930, 1/1000), anti-SAMHD1 (Cell signaling technology, 49158, 1/1000), and β−actin (Santa Cruz, 1/1000).
# HBV genotype C = assay: Anti-HBV activity in HBV-infected PXB cells (HBV DNA by qPCR); format: cell-based; settings: Hepatitis B virus, 168 h; HBV genotype C-infected PXB cells, 0.03–100 µM for 7 days, qPCR; read-out: half maximal inhibitory concentration, cellular HBV DNA
# Procedure: PXB cells (primary cultured human hepatocytes) were purchased from PhoenixBio (Higashi-Hiroshima, Japan) and cultured on collagen type I-coated 96- or 24-well plates in hepatocyte clonal growth medium at 37 °C and 5 % CO2 as previously described. RealTime-Glo MT Cell Viability Assay (Promega) and XTT assay were performed according to a previously established protocol.
# PXB cells were plated on 96-well plate and infected with three genome equivalents per cell of HBV C_AT [33], and the medium was changed every 3 or 4 days. […] After treatment with these compounds, cellular DNA, medium DNA, and total RNA were automatically purified as per our previously established protocol. RNA purification of total RNA from cultured cells in the 24-well plate was performed using the RNeasy Mini Kit (Qiagen, Germantown, MD, USA) according to the manufacturer’s instructions.
# HBV DNA copy numbers were determined using TaqMan Gene Expression Master Mix (Thermo Fisher Scientific) or Probe qPCR Mix (Takara Bio), specific primers, and probes in a qPCR system (Light Cycler 96 System, Roche, Basel, Switzerland or CFX96 Touch Real-Time PCR Detection System, Bio-Rad Laboratories, Hercules, CA, USA). The specific primers and probe used for detection of HBV DNA were as follows: forward primer: 5′-[…]-3′, reverse primer: 5′-[…]-3′, and probe: 5′-[FAM] […][TAM]-3′.
# [1] = Liver microsomal stability, mouse; format: in vitro ADME; settings: mouse liver microsomes
# Procedure: (§1) Liver microsome stability studies (human, mouse, and rat) were performed at Sumika Chemical Analysis Service (Osaka, Japan) by following an established procedure. A mixture of 1 μM of substrate, 0.5 mg protein/mL of microsomes, and […] β-NADPH was incubated for 30 or 60 min and % remaining substrate was quantitatively measured by LC-MS/MS.
# JAK/STAT signaling = assay: Western blotting of phospho-STAT1, STAT2, STAT3 in HCV replicon cells; format: cell-based, human; settings: 30 μM, 24 h
# Procedure: HCV replicon cells were treated with 30 μM CDM-3008, iCDM-17, and iCDM-34 for 1 day. The cells were lyzed with 1 x SDS sample buffer containing PhosStop, Complete EDTA free, and 1 mM EDTA. After sonication for 30 s, the lysates were centrifuged at 12,000g for 10 min at 4 °C, and then the supernatants were collected. After reducing the 20 μg of supernatants with 50 mM DTT at 98 °C for 2 min, the samples were separated by SDS-PAGE. STAT1, STAT2, STAT3, pSTAT1, pSTAT2, and pSTAT3 were detected by Western blotting using anti-STAT1 (9175, 1/1000), STAT2 (72604, 1/1000), STAT3 (12640, 1/1000), pSTAT1 (Y701) (7649, 1/1000), pSTAT2 (Y690) (88410, 1/1000), and pSTAT3 (Y705) (9145, 1/1000) antibodies (Cell signaling technology, Massachusetts, USA).
# [2] = Liver microsomal stability, rat; format: in vitro ADME; settings: rat liver microsomes
# Procedure: as §1
# [3] = Liver microsomal stability, human; format: in vitro ADME; settings: human liver microsomes
# Procedure: as §1
# [4] = 1 μM substrate, 0.5 mg protein/mL, 30 min
# [5] = 1 μM substrate, 0.5 mg protein/mL, 60 min
smiles,measurement,setting,value
COc1ccc(CNC(=O)c2nc(-c3ccc4c(c3)OCO4)no2)cc1OC [iCDM-17],phospho-SAMHD1 levels,phospho-SAMHD1,lower than pre-treatment levels
same,IC50,HBV genotype C,56.6 µM
same,half-life at 1 μM,[1],34.8 min
same,"remaining at 0.5 h, 1 μM",[1]; [4],45.8 ± 0.6%
same,"remaining at 1 h, 1 μM",[1]; [5],22.6%
same,"phosphorylation of STAT1, STAT2, and STAT3",JAK/STAT signaling,not induced
same,half-life at 1 μM,[2],26.7 min
same,"remaining at 0.5 h, 1 μM",[2]; [4],32 ± 0.2%
same,"remaining at 1 h, 1 μM",[2]; [5],11.6 ± 0.2%
same,half-life at 1 μM,[3],48.6 min
same,"remaining at 0.5 h, 1 μM",[3]; [4],61.4 ± 0.9%
same,"remaining at 1 h, 1 μM",[3]; [5],42.3 ± 0.1%

# Source: paper PMC10746708, “A small molecule iCDM-34 identified by in silico screening suppresses HBV DNA through activation of aryl hydrocarbon receptor” (Cell Death Discovery, 2023)
